Test results published in US5830667A, “Human P450 IID6 cytochrome-derived peptide fragments, anti-peptide fragment antibodies, applications thereof in the diagnosis of autoimmune hepatitis” (Institut National de la Sante et de la Recherche …, priority 1991, dated 1998).
Ends that are not written are not given here.

Experiments:
anti-LKM autoantibodies = assay: Peptide fragments used as diagnostic reagents for autoimmune hepatitis; type: binding, human
[1] = tested on: anti-LKM antibodies (LKM-positive sera); assay: ELISA test of cytochrome P450 IID6 peptides with human sera; type: binding; conditions: for number of patients whose sera recognize the peptide: tested by ELISA and immunoblotting, 15 patients
Description: The peptides are redissolved in a PBS buffer, pH 7.4 and diluted in order to obtain concentrations of 0.1, 0.2, 0.5 and 1 μg/ml; 100 μl per well of each peptide solution are incubated overnight in microtitre plates containing 96 wells (IMMULON2a commercially available ELISAPLATE, Dynatech, Poly-Labo, Paris--FRANCE). The ELISA analysis is then performed as described in GUEGUEN M. et al., (Biochem. Biophys. Res. Commun., 1989, 159, 542), using the various human sera described above. The first antibodies are tested at dilutions ranging from 1/100 to 1/12,800. The alkaline phosphatase-conjugated goat anti-human IgG antibody is used as second antibody at a dilution of 1/1000. The test is developed by adding 100 μl of p-nitrophenyl phosphate at a concentration of 1 mg/ml in a 0.05M NaCO3 buffer, pH 9.8 and 0.001M MgCl2. The results read after incubating for 30 minutes at room temperature are considered positive when they are higher by a factor of 2 compared with the control serum.

[2] = tested on: anti-LKM antibodies (LKM-positive sera); assay: Immunoblotting of cytochrome P450 IID6 peptides with LKM-positive sera; type: binding, human
Description: (§1) The expression of the fusion proteins from the cDNA constructs is described by STANLEY (Nucleic Acids Research, 1983, 11, 4077). 100 μl culture samples, for each fusion protein, are subjected to electrophoresis on an 8-20% SDS-polyacrylamide gel, transferred onto nitrocellulose and analysed by the immunoblot technique.
(§2) The first antibodies used for the immunoblot method are:
(§3) 1) sera from patients responding positively to the anti-LKM antibodies;
(§4) Depending on the origin of the first antibody, the second antibody is either a peroxydase-goat anti-human IgG conjugate, or a peroxydase-goat anti-mouse IgG conjugate (Biosys), at a dilution of 1/1000.
The different peptides and especially peptides 254-271 (peptide of formula II) , 264-281 and 410-429 (peptide of formula X), are coupled to BSA via their free NH2 -terminal group, using glutaraldehyde (see especially E. HARLOW and D. LANE, 1988, Antibodies, A laboratory manual, Cold Spring Harbor Laboratory).

[3] = tested on: anti-LKM antibodies (LKM-positive sera); assay: Immunoblot analysis of the fusion proteins P450 IID6/β-gal with LKM-positive sera; type: binding, human; conditions: eleven sera tested; FIG. 2
Description: b) Expression and immunoblot analysis of the fusion proteins obtained from the various constructs of pEX-627-LKMHC5 and pEX-627-LKMC1/BamHI.
as §1, §2, §3, §4
Rat liver and human liver microsomes and β-galactosidase, expressed by the plasmid pEX-627 not comprising the P450 DNA insert, are included on the same gels as positive controls and negative control respectively.

number of patients whose sera recognize the peptide [1] [patients/15]	Molecule	positive response in patients suffering from autoimmune hepatitis (anti-LKM autoantibodies)	further results
1	GMTHMTSRDIGVQGFRI [Peptide of formula IX, Gly-Met-Thr-His-Met-Thr-Ser-Arg-Asp-Ile-Gly-Val-Gln-Gly-Phe-Arg-Ile]	–	–
–	LLTEHRMTWDPAQPPRDL [Peptide of formula II, Leu-Leu-Thr-Glu-His-Arg-Met-Thr-Trp-Asp-Pro-Ala-Gln-Pro-Pro-Arg-Asp-Leu]	–	recognized by LKM-positive sera when tested by immunoblotting [2]: recognized by all the LKM-positivesera; recognized by LKM-positive sera when tested by ELISA [1]: recognized by all the LKM-positivesera
8	MILHPDVQRRVQQEIDDVIGQVRRPEMGDQA [Peptide of formula Va]	positive response in most patients	–
–	LKMC1/BamHI: fusion protein from EcoRI-BamHI fragment of LKMC1, cDNA clone encoding rat cytochrome P450 db2, in plasmid pEX-627 (protein) MGLLIGDDLWAVVIFTAIFLLLVDLVHRHKFWTAHYPPGPVPLPGLGNLLQVDFENMPYSLYKLRSRYGDVFSLQIAWKPVVVINGLKAVRELLVTYGEDTADRPLLPIYNHLGYGNKSKGVVLAPYGPEWREQRRFSVSTLRDFGVGKKSLEQWVTEEAGHLCDTFAKEAEHPFNPSILLSKAVSNVIASLVYARRFEYEDPFFNRMLKTLKESFGEDTGFMAEVLNAIPILLQIPGLPGKVFPKLNSFIALVDKMLIEHKKSWD	–	recognition of fusion protein by LKM-positive sera on the immunoblots [3]: None of the sera of the patients tested recognizes

Molecule	number of patients whose sera recognize the peptide [1] [patients/15]	positive response in patients suffering from autoimmune hepatitis (anti-LKM autoantibodies)	further results
EKPYPEHFLDAQGHFVKPEA [Peptide of formula X, amino acids 410-429 of human cytochrome P450 IID6]	2	positive response in most patients	–
